# Key:
# Format in all cases: cell-based
# [1] = test system: tobacco callus Nicotiana tabacum L. cv. Wisconsin 38; assay: Growth of cytokinin-dependent tobacco callus; details: for Activity (%) [10^−5 mol · l^−1 BAP = 100%]: callus growth, at concentration with highest activity; for Concentration with highest activity: fresh callus weight after four weeks
# [2] = test system: human malignant melanoma cells G361; assay: In vitro cytotoxic activity, Calcein AM assay, G-361; details: 72 hours, read-out: IC 50 G-361
# In short: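 GI50 values come from dose-response curves of Calcein AM fluorescence, normalised to control wells, after 72 h compound exposure. Cells grown in DMEM with 10% fetal calf serum; routine highest concentration 166.7 μM, duplicates.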
# [3] = test system: Human lymphocytes; assay: Immunosuppressive activity: concanavalin A induced lymphocyte proliferation, [^3H]-TdR incorporation; details: 72 hours, read-out: Human lymphocytes ED50
# Experimental: Human heparinized peripheral blood was obtained from healthy volunteers by cubital vein punction. The blood was diluted in PBS (1:3) and mononuclear cells were separated by centrifugation in Ficoll-Hypaque density gradient (Pharmacia, 1.077 g/ml) at 2200 rpm for 30 minutes. Following centrifugation, lymphocytes were washed in PBS and resuspended in cell culture medium (RMPI 1640, 2 mM glutamine, 100 U/ml penicillin, 100 μg/ml streptomycin, 10% fetal calf serum and sodium bicarbonate).
# The cells were diluted at target density of 1,100,000 cells/ml were added by pipette (180 μl) into 96/well microtiter plates. Four-fold dilutions of the intended test concentration were added at time zero in 20 μl aliquots to the microtiter plate wells. Usually, test compound was evaluated at six 4-fold dilutions. In routine testing, the highest well concentration was 266.7 μM. All drug concentrations were examined in duplicates. All wells with exception of unstimulated controls were activated with 50 μl of concanavalin A (25 μg/ml). Incubations of cells with test compounds lasted for 72 hours at 37° C., in 5% CO2 atmosphere and 100% humidity. At the end of incubation period, the cells were assayed by using the [^3H]-TdR:
# Cell cultures were incubated with 0.5 μCi (20 μl of stock solution 500 μCi/ml) per well for 6 hours at 37° C. and 5% CO2. The automated cell harvester was used to lyse cells in water and adsorb the DNA onto glass-fiber filters in the format of microtiter plate. The DNA incorporated [^3H]-TdR was retained on the filter while unincorporated material passes through. The filters were dried at room temperature overnight, sealed into a sample bag with 10-12 ml of scintillant. The amount of [^3H]-TdR present in each filter (in cpm) was determined by scintillation counting in a Betaplate liquid scintillation counter. The effective dose of immunosuppressant (ED) was calculated using the following equation: ED=(CCPMdrug exposed well/mean CCPMcontrol wells)×100%. The ED50 value, the drug concentration inhibiting proliferation of 50% of lymphocytes, was calculated from the obtained dose response curves.
SMILES,Activity (%) [10^−5 mol · l^−1 BAP = 100%] [1],Concentration with highest activity [1],IC50 [2],EC50 [3]
"COc1ccccc1CNc1ncnc2c1ncn2[C@@H]1O[C@H](CO)[C@@H](O)[C@H]1O [2-methoxybenzylamino, 6-(2-methoxybenzylamino)purine riboside]",108 ± 1%,10^−5 mol · l^−1,> 167 µM,
"OC[C@H]1O[C@@H](n2cnc3c(NCc4cccc(F)c4)ncnc32)[C@H](O)[C@@H]1O [3-fluorobenzylamino, 6-(3-fluorobenzylamino)purine riboside]",91 ± 6%,10^−5 mol · l^−1,15.7 µM,7.1 µM
"OC[C@H]1O[C@@H](n2cnc3c(NCc4cccc(Cl)c4)ncnc32)[C@H](O)[C@@H]1O [3-chlorobenzylamino, 6-(3-chlorobenzylamino)purine riboside]",96 ± 5%,10^−5 mol · l^−1,,2.5 µM
"OC[C@H]1O[C@@H](n2cnc3c(NCc4ccc(F)cc4)ncnc32)[C@H](O)[C@@H]1O [4-fluorobenzylamino, 6-(4-fluorobenzylamino)purine riboside]",100 ± 6%,10^−6 mol · l^−1,,9.4 µM
"Cc1cccc(CNc2ncnc3c2ncn3[C@@H]2O[C@H](CO)[C@@H](O)[C@H]2O)c1 [3-methylbenzylamino, 6-(3-methylbenzylamino)purine riboside]",90 ± 2%,10^−6 mol · l^−1,,6.5 µM
"OC[C@H]1O[C@@H](n2cnc3c(NCc4ccccc4Cl)ncnc32)[C@H](O)[C@@H]1O [2-chlorobenzylamino, 6-(2-chlorobenzylamino)purine riboside]",93 ± 4%,10^−6 mol · l^−1,,8.4 µM
"OC[C@H]1O[C@@H](n2cnc3c(NCc4ccccc4F)ncnc32)[C@H](O)[C@@H]1O [2-fluorobenzylamino, 6-(2-fluorobenzylamino)purine riboside]",100 ± 9%,10^−6 mol · l^−1,,5.6 µM
"OC[C@H]1O[C@@H](n2cnc3c(NCc4cccc(Br)c4)ncnc32)[C@H](O)[C@@H]1O [3-bromobenzylamino, 6-(3-bromobenzylamino)purine riboside]",82 ± 11%,10^−6 mol · l^−1,,
"Cc1ccccc1CNc1ncnc2c1ncn2[C@@H]1O[C@H](CO)[C@@H](O)[C@H]1O [2-methylbenzylamino, 6-(2-methylbenzylamino)purine riboside]",98 ± 4%,10^−6 mol · l^−1,,5.8 µM
"OC[C@H]1O[C@@H](n2cnc3c(NCc4ccc(Cl)cc4)ncnc32)[C@H](O)[C@@H]1O [4-chlorobenzylamino, 6-(4-chlorobenzylamino)purine riboside]",46 ± 14%,10^−6 mol · l^−1,,3.9 µM
"COc1cccc(CNc2ncnc3c2ncn3[C@@H]2O[C@H](CO)[C@@H](O)[C@H]2O)c1O [2-hydroxy-3-methoxybenzylamino, 6-(2-hydroxy-3-methoxybenzylamino)purine riboside]",,,148 µM,1.4 µM
"COc1cccc(CNc2ncnc3c2ncn3[C@@H]2O[C@H](CO)[C@@H](O)[C@H]2O)c1 [3-methoxybenzylamino, 6-(3-methoxybenzylamino)purine riboside]",92 ± 1%,10^−6 mol · l^−1,> 167 µM,
